Laboratory results: ChEMBL document CHEMBL1201862, “PubChem BioAssay data set” (2004)
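Step 1: Grow cells in 96-well plates. Step 2: Expose to compound for 48 hours at 5 concentrations. Step 3: Interpolate endpoints linearly; if unreached, use highest concentration. Abbreviation: GI50, concentration required for 50% inhibition of growth.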 Active and inactive are the calls of the source. No stated cut-off is given here; in the data, active = GI50 up to about 1.1 µM and inactive = higher.

Columns and labels:
Assay in all cases: DTP human tumour cell line panel, 48 h
MOLT-4 = system: MOLT-4
NCI-H522 = system: NCI-H522
A549 = system: A549
OVCAR-8 = system: OVCAR-8
T47D = system: T47D
MCF7 = system: MCF7
OVCAR-3 = system: OVCAR-3
SW-620 = system: SW-620
SNB-75 = system: SNB-75
HCT-116 = system: HCT-116
BT-549 = system: BT-549
SF-295 = system: SF-295
EKVX = system: EKVX
Malme-3M = system: Malme-3M
786-0 = system: 786-0
CAKI-1 = system: CAKI-1
SK-MEL-5 = system: SK-MEL-5
KM12 = system: KM12
COLO 205 = system: COLO 205
K562 = system: K562
HT-29 = system: HT-29
NCI/ADR-RES = system: NCI/ADR-RES
OVCAR-4 = system: OVCAR-4
UACC-257 = system: UACC-257
CCRF-CEM = system: CCRF-CEM
UO-31 = system: UO-31
UACC-62 = system: UACC-62
RXF 393 = system: RXF 393
IGROV-1 = system: IGROV-1
LOX IMVI = system: LOX IMVI
SF-268 = system: SF-268
HCT-15 = system: HCT-15
OVCAR-5 = system: OVCAR-5
SK-MEL-2 = system: SK-MEL-2
SK-OV-3 = system: SK-OV-3
Hs-578T = system: Hs-578T
NCI-H226 = system: NCI-H226
U-251 = system: U-251
HOP-92 = system: HOP-92
SF-539 = system: SF-539
M14 = system: M14
MDA-N = system: MDA-N
SN12C = system: SN12C
A498 = system: A498
RPMI-8226 = system: RPMI-8226
HCC 2998 = system: HCC 2998
SR = system: SR
MDA-MB-231 = system: MDA-MB-231
NCI-H460 = system: NCI-H460
PC-3 = system: PC-3
ACHN = system: ACHN
SNB-19 = system: SNB-19
HOP-62 = system: HOP-62
MDA-MB-435 = system: MDA-MB-435
TK-10 = system: TK-10
NCI-H23 = system: NCI-H23
SK-MEL-28 = system: SK-MEL-28
HL-60 = system: HL-60
DU-145 = system: DU-145

Measured: GI50

O=c1c2c(-c3ccccc3)onc2n(-c2ccccc2)c(=O)n1-c1ccccc1
15.8 µM: HCT-15
inactive: MOLT-4 > 100 µM | NCI-H522 15.7 µM | A549 > 100 µM | OVCAR-8 17.5 µM | T47D > 100 µM | MCF7 > 100 µM | OVCAR-3 15.1 µM | SW-620 > 100 µM | SNB-75 27.8 µM | HCT-116 > 100 µM | BT-549 19.2 µM | SF-295 > 100 µM | EKVX 20.3 µM | Malme-3M 17.5 µM | 786-0 > 100 µM | CAKI-1 > 100 µM | SK-MEL-5 > 100 µM | KM12 17.9 µM | COLO 205 > 100 µM | K562 > 100 µM | HT-29 21 µM | NCI/ADR-RES 16.9 µM | OVCAR-4 32.8 µM | UACC-257 19.7 µM | CCRF-CEM > 100 µM | UO-31 14.9 µM | UACC-62 14.5 µM | RXF 393 > 100 µM | IGROV-1 22.5 µM | LOX IMVI > 100 µM | SF-268 30.1 µM | OVCAR-5 16.4 µM | SK-MEL-2 11 µM | SK-OV-3 > 100 µM | Hs-578T 28.4 µM | NCI-H226 26.1 µM | U-251 > 100 µM | HOP-92 > 100 µM | SF-539 > 100 µM | M14 17.1 µM | MDA-N > 100 µM | SN12C > 100 µM | A498 > 100 µM | RPMI-8226 > 100 µM | HCC 2998 18.2 µM | SR > 100 µM | MDA-MB-231 > 100 µM | NCI-H460 17.9 µM | PC-3 18.6 µM | ACHN 31.2 µM | SNB-19 27.4 µM | HOP-62 21.8 µM | MDA-MB-435 > 100 µM | TK-10 14.5 µM | NCI-H23 19 µM

CC(C)(C)NC(NC(C)(C)C)=C(C(Cl)=C(Cl)Cl)[N+](=O)[O-]
> 100 µM: HCT-15
inactive: MOLT-4 > 100 µM | SK-MEL-28 > 100 µM | A549 > 100 µM | OVCAR-8 > 100 µM | HL-60 > 100 µM | T47D > 100 µM | MCF7 > 100 µM | OVCAR-3 > 100 µM | SW-620 > 100 µM | SNB-75 > 100 µM | HCT-116 > 100 µM | BT-549 > 100 µM | SF-295 > 100 µM | EKVX > 100 µM | Malme-3M > 100 µM | 786-0 > 100 µM | CAKI-1 > 100 µM | SK-MEL-5 > 100 µM | KM12 > 100 µM | COLO 205 > 100 µM | K562 > 100 µM | HT-29 > 100 µM | NCI/ADR-RES > 100 µM | OVCAR-4 > 100 µM | UACC-257 67.6 µM | CCRF-CEM > 100 µM | UO-31 42.7 µM | UACC-62 > 100 µM | RXF 393 > 100 µM | IGROV-1 > 100 µM | LOX IMVI > 100 µM | SF-268 > 100 µM | OVCAR-5 > 100 µM | SK-OV-3 > 100 µM | Hs-578T 29.4 µM | NCI-H226 > 100 µM | U-251 > 100 µM | SF-539 > 100 µM | M14 > 100 µM | MDA-N > 100 µM | SN12C > 100 µM | A498 > 100 µM | RPMI-8226 > 100 µM | HCC 2998 > 100 µM | DU-145 > 100 µM | SR > 100 µM | MDA-MB-231 > 100 µM | NCI-H460 > 100 µM | PC-3 > 100 µM | ACHN > 100 µM | SNB-19 10.1 µM | HOP-62 > 100 µM | TK-10 > 100 µM | NCI-H23 > 100 µM
